Assay results published in patent US11167015B2, “Arginine and its use as a T cell modulator” (INSTITUTE FOR RESEARCH IN BIOMEDICINE, priority 2016, dated 2021).

How the values were obtained:
human naïve CD4+ T cells [1] = assay: CCR7 expression by flow cytometry; format: cell-based; conditions: day 10 after activation, L-arginine supplemented vs control cultures
Method: FIG. 4. L-arginine limits human T cell differentiation and endows cells with a high survival capacity in vitro. (A, B) Human naïve CD4^+ T cells were activated in L-Arg medium or Ctrl medium in the presence of 10 ng/ml IL-12. IFN-γ was quantified in culture supernatants after 5 days (A) or after re-activation for 5 h with PMA/Ionomycin (B); n=9 from three donors. (C) Naïve CD4^+ T cells were labeled with CellTrace Violet (CTV) and activated in L-Arg medium or Ctrl medium. On day 10, proliferating CTV^lo T cells were stained with an antibody to CCR7 and analyzed by flow cytometry; n=15 from three donors. (D) Naïve CD4^+ T cells were activated for 5 days in L-Arg or Ctrl medium in the presence of exogenous IL-2, washed extensively and cultured in Ctrl medium in the absence of IL-2. Shown is the percentage of living T cells as determined by Annexin V staining at different time points after IL-2 withdrawal. One representative experiment out of three performed. (E) Same experiment as in (D). Shown is the difference of living activated CD4^+ and CD8^+ T cells 5 days after withdrawal of IL-2; n=46, from sixteen donors (CD4^+ T cells); n=13, from four donors (CD8^+ T cells). […] (K) Effect of norNOHA and BEC on proliferation of CTV-labeled naïve T cells measured 72 h after activation. *p<0.05, **p<0.01, ***p<0.001, ****p<0.0001 (Student's t-test).

activated CD8+ T cells = assay: IL-2 withdrawal assay and assessment of cell viability, CD8+ T cells; format: cell-based, human; conditions: L-arginine supplementation, 5 days after IL-2 withdrawal
human naïve CD4+ T cells [2] = assay: kinetic metabolome analysis of activated T cells; format: cell-based; conditions: L-arginine in medium increased 4-fold (1 mM standard), all time points
Method: (B) Differential analysis of the glycolytic pathway between naïve CD4^+ T cells cultured in L-Arg medium or Ctrl medium, 96 h after activation. Log 2 fold changes of proteins and metabolites are color-coded. […] 3-P-Glycerate and 2-P-Glycerate could not be distinguished as they have the same mass. (C) 72 h-activated T cells were plated in fresh medium and glucose consumption was determined enzymatically after 24 h; n=9 from three donors. (D) Seahorse experiment performed with activated (96 h) T cells from one donor. Oligomycin was injected after 56 min, FCCP after 96 min, and antimycin (to inhibit the respiratory chain) after 136 min. Data are representative of 5 independent experiments with different donors.
(A) Human naïve CD4^+ T cells were activated in normal medium or in L-Arg medium. Nitric oxide formation was measured using DAF-FM diacetate at different time points.
Naïve CD4^+ T cells were either analyzed directly after isolation or at different time points after activation with CD3 and CD28 antibodies. Cells were washed twice in 96-well plates with 75 mM ammonium carbonate at pH 7.4 and snap frozen in liquid nitrogen. Metabolites were extracted three times with hot (>70° C.) 70% ethanol. Extracts were analyzed by flow injection—time of flight mass spectrometry on an Agilent 6550 QTOF instrument operated in the negative mode, as described previously (Fuhrer et al., 2011). Typically 5,000-12,000 ions with distinct mass-to-charge (m/z) ratio could be identified in each batch of samples. Ions were putatively annotated by matching their measured mass to that of the compounds listed by the KEGG database for Homo sapiens, allowing a tolerance of 0.001 Da. Only deprotonated ions (without adducts) were considered in the analysis. In case of multiple matching, such as in the case of structural isomers, all candidates were retained.

natural killer cells = conditions: oral administration, healthy volunteers; cited from earlier work
human CD4+ T cell clones = assay: Survival experiment with CRISPR/Cas9 gene knockout T cell clones; format: cell-based
Method: Naïve CD4 T cells were activated with plate-bound CD3 and CD28 antibodies. 48 h after activation IL-2 was added to culture media (500 U ml^−1). After a further 3 days of culturing, cells were washed, counted and equal cell numbers were plated in medium devoid of IL-2. The withdrawal medium was no longer supplemented with e.g. L-arginine. Cell viability was assessed with annexin V.
Two to four short guide RNAs (sgRNAs) (Table 1) per gene were designed using the online tool provided by the Zhang laboratory (tools.genome-engineering.org). Oligonucleotide pairs with BsmBI-compatible overhangs were annealed and cloned into the lentiviral vector lentiCRISPR v2 (Addgene plasmid #52961) (Sanjana et al., 2014). […]
To screen for clones with disrupted target genes, individual clones were lysed with sample buffer containing 80 mM Tris pH 6.8, 10.5% glycerol, 2% SDS and 0.00004% Bromophenol blue. Lysate of 100,000 cells was separated by SDS-PAGE followed, blotted onto PVDF membranes and analyzed with antibodies to target proteins, Baz1B (Abeam, ab50850), PSIP1 (Bethyl, A300-848A), DDX17 (Abeam, ab180190), PTPN6 (Santa Cruz, sc-287) or TSN (Sigma, HPA059561). […] To screen for clones with disrupted B2M, single cell clones were stained with an antibody to MHC-1 (eBioscience, HLA-ABC-FITC) and analyzed by flow cytometry.

## N=C(N)NCCC[C@H](N)C(=O)O [L-arginine]
Human naïve CD4+ T cells [1]
  fraction of proliferating CCR7+ T cells: higher fraction
Activated CD8+ T cells
  survival of activated CD8+ T cells in the absence of exogenous cytokines: significantly increased
Human naïve CD4+ T cells [2]
  Intracellular arginine levels compared to controls: 1.5-2.5 fold
  Intracellular ornithine levels compared to controls: 1.5-2.5 fold
Natural killer cells
  numbers and activity of natural killer cells: enhance the numbers and activity of natural killer cells
Human CD4+ T cell clones; knockout of BAZ1B, PSIP1 and TSN
  L-arginine's beneficial effect on T cell survival in BAZ1B, PSIP1 and TSN knockout clones: significantly reduced
Human CD4+ T cell clones; knockout of PTPN6 (Shp-1) or B2M
  effect of L-arginine on T cell survival in PTPN6 (Shp-1) or B2M knockout clones: did not alter
